These results are taken from patent publication US20180243298A1, “TRPV3 MODULATORS” (AbbVie Inc., priority 2015, published 2018).

Broadly, the IC50 is the concentration at which inhibition is half-maximal.

This assay has as its target T1, human TRPV3 (Homo sapiens, UniProt Q8NET8).
T1 construct: expressed in transfected cells; host or cells: HEK293
T1 sequence (Q8NET8 1-790): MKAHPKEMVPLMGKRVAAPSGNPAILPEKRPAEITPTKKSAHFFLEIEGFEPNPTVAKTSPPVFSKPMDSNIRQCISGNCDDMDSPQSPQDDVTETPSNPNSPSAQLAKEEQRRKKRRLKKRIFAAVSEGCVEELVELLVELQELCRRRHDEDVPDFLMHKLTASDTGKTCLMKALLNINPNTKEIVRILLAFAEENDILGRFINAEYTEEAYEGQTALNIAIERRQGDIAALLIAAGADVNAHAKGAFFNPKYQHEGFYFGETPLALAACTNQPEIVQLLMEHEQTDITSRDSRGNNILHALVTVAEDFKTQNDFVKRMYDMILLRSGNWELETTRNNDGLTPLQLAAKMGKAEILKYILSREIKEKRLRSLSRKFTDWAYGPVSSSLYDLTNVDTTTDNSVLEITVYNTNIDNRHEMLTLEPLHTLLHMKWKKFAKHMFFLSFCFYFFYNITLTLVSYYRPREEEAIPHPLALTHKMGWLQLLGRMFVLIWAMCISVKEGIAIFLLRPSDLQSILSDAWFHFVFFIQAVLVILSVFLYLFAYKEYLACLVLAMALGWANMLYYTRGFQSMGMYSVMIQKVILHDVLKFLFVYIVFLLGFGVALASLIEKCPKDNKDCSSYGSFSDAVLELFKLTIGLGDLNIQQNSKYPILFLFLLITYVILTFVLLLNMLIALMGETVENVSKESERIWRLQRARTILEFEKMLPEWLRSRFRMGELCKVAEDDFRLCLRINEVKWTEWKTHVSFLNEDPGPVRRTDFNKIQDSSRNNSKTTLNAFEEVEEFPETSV
The assay is described as follows: Calcium flux assay (FLIPR TETRA), recombinant HEK293 cells expressing TRPV3, 2-APB response. The format is cell-based. The following applies: 2-APB at its EC80. In outline: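 Response is the peak fluorescence increase over baseline, as a percentage of the compound-free response to 2-APB at EC80. Calcium flux recorded on FLIPR TETRA in stable human or mouse TRPV3 HEK293 cells after 90–120 min Calcium-4 dye loading.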
(In general: A change in cytosolic calcium serves as a functional read-out for many receptors and channels.)
Consider `COc1ncnc(OC)c1C(=O)Nc1nc(C(F)(F)F)c(-c2ccc(N3CCOCC3)nc2)s1` [Example 23, 4,6-dimethoxy-N-{5-[6-(morpholin-4-yl)pyridin-3-yl]-4-(trifluoromethyl)-1,3-thiazol-2-yl}pyrimidine-5-carboxamide], for which the IC50 lay in the range of 100 to 500 nM.
Regarding `COc1ncnc(OC)c1C(=O)Nc1nc(C(F)(F)F)c(CN2CCCC3(COC3)C2)s1` [Example 62, 4,6-dimethoxy-N-[5-(2-oxa-6-azaspiro[3.5]non-6-ylmethyl)-4-(trifluoromethyl)-1,3-thiazol-2-yl]pyrimidine-5-carboxamide], the IC50 was 50 to 100 nM.
As to `COc1ncnc(OC)c1C(=O)Nc1nc(C(F)(F)F)c(-c2cc3ncccc3o2)s1` [Example 187, N-[5-(furo[3,2-b]pyridin-2-yl)-4-(trifluoromethyl)-1,3-thiazol-2-yl]-4,6-dimethoxypyrimidine-5-carboxamide], the IC50 lay within 100 to 500 nM.
As for `COc1ncnc(OC)c1C(=O)Nc1nc(C(F)(F)F)c(-c2cnc(C3CC3)nc2)s1` [Example 203, N-[5-(2-cyclopropylpyrimidin-5-yl)-4-(trifluoromethyl)-1,3-thiazol-2-yl]-4,6-dimethoxypyrimidine-5-carboxamide], the IC50 was below 50 nM.
On to `COc1ncnc(OC)c1C(=O)Nc1nc(C(F)(F)F)c(C2CC2)s1` [Example 37, N-[5-cyclopropyl-4-(trifluoromethyl)-1,3-thiazol-2-yl]-4,6-dimethoxypyrimidine-5-carboxamide], for which the IC50 is below 50 nM.
On to `COc1ncnc(OC)c1C(=O)Nc1nc(-c2ccc(C(F)(F)F)cn2)c(CN2CCCC2)s1` [Example 78, 4,6-dimethoxy-N-{5-(pyrrolidin-1-ylmethyl)-4-[5-(trifluoromethyl)pyridin-2-yl]-1,3-thiazol-2-yl}pyrimidine-5-carboxamide], for which the IC50 fell in the range of 100 to 500 nM.
On to `COCCN(C)S(=O)(=O)c1cccc(-c2sc(NC(=O)c3c(OC)ncnc3OC)nc2C(F)(F)F)c1` [Example 197, 4,6-dimethoxy-N-[5-{3-[(2-methoxyethyl)(methyl)sulfamoyl]phenyl}-4-(trifluoromethyl)-1,3-thiazol-2-yl]pyrimidine-5-carboxamide], for which the IC50 was below 50 nM.
Consider `COc1ncnc(OC)c1C(=O)Nc1nc(C(F)(F)F)c(-c2ccc(CN3CCOCC3)cc2)s1` [Example 198, 4,6-dimethoxy-N-{5-[4-(morpholin-4-ylmethyl)phenyl]-4-(trifluoromethyl)-1,3-thiazol-2-yl}pyrimidine-5-carboxamide], for which the IC50 was below 50 nM.
For the compound `COc1ncnc(OC)c1C(=O)Nc1nc(C(F)(F)F)c(C2=CCN(S(C)(=O)=O)CC2)s1` [Example 165, 4,6-dimethoxy-N-{5-[1-(methylsulfonyl)-1,2,3,6-tetrahydropyridin-4-yl]-4-(trifluoromethyl)-1,3-thiazol-2-yl}pyrimidine-5-carboxamide], the IC50 is 500 to 1000 nM.
As for `COc1ncnc(OC)c1C(=O)Nc1nc(C(F)(F)F)c(C(F)(F)F)s1` [Example 163, N-[4,5-bis(trifluoromethyl)-1,3-thiazol-2-yl]-4,6-dimethoxypyrimidine-5-carboxamide], the IC50 was in the range of 50 to 100 nM.
Then `COc1ncnc(OC)c1C(=O)Nc1nc(C(F)(F)F)c(C(O)c2ccc(F)cn2)s1` (centres unmarked) [Example 130, N-{5-[(5-fluoropyridin-2-yl)(hydroxy)methyl]-4-(trifluoromethyl)-1,3-thiazol-2-yl}-4,6-dimethoxypyrimidine-5-carboxamide], with 100 to 500 nM.
In the case of `COc1ncnc(OC)c1C(=O)Nc1nc(CCC2CC2)cs1` [Example 105, N-[4-(2-cyclopropylethyl)-1,3-thiazol-2-yl]-4,6-dimethoxypyrimidine-5-carboxamide], the IC50 was in the range of 50 to 100 nM.
Regarding `COc1ncnc(OC)c1C(=O)Nc1nc(C(F)(F)F)c(-c2cccc(CC#N)n2)s1` [Example 155, N-{5-[6-(cyanomethyl)pyridin-2-yl]-4-(trifluoromethyl)-1,3-thiazol-2-yl}-4,6-dimethoxypyrimidine-5-carboxamide], the IC50 was 100 to 500 nM.
In the case of `CCn1cc(-c2sc(NC(=O)c3c(OC)ncnc3OC)nc2C(F)(F)F)cn1` [Example 177, N-[5-(1-ethyl-1H-pyrazol-4-yl)-4-(trifluoromethyl)-1,3-thiazol-2-yl]-4,6-dimethoxypyrimidine-5-carboxamide], the IC50 fell in the range of 100 to 500 nM.
Consider `CCOc1ncnc(OCC)c1C(=O)Nc1nc(C(F)(F)F)c(C#N)s1` [Example 7, N-[5-cyano-4-(trifluoromethyl)-1,3-thiazol-2-yl]-4,6-diethoxypyrimidine-5-carboxamide], for which the IC50 lay in the range of 500 to 1000 nM.
In the case of `COc1ncnc(OC)c1C(=O)Nc1nc(-c2ccc(C(F)(F)F)cn2)c(S(C)(=O)=O)s1` [Example 114, 4,6-dimethoxy-N-[5-methylsulfonyl-4-[5-(trifluoromethyl)-2-pyridyl]-1,3-thiazol-2-yl]pyrimidine-5-carboxamide], the IC50 was 100 to 500 nM.
Then `COc1ncnc(OC)c1C(=O)Nc1nc(C(F)(F)F)c(-c2cccnc2N2CCOCC2)s1` [Example 185, 4,6-dimethoxy-N-{5-[2-(morpholin-4-yl)pyridin-3-yl]-4-(trifluoromethyl)-1,3-thiazol-2-yl}pyrimidine-5-carboxamide], with below 50 nM.
Regarding `COc1ncnc(OC)c1C(=O)Nc1nc(C(F)(F)F)c(S(=O)(=O)c2ccc(C)cc2)s1` [Example 110, 4,6-dimethoxy-N-[5-(p-tolylsulfonyl)-4-(trifluoromethyl)-1,3-thiazol-2-yl]pyrimidine-5-carboxamide], the IC50 was in the range of 100 to 500 nM.
With `COc1ncnc(OC)c1C(=O)Nc1nc(C(F)(F)F)c(Cl)s1` [Example 63, N-[5-chloro-4-(trifluoromethyl)-1,3-thiazol-2-yl]-4,6-dimethoxypyrimidine-5-carboxamide], the IC50 was below 50 nM.
For the compound `COCC#Cc1sc(NC(=O)c2c(OC)ncnc2OC)nc1C(F)(F)F` [Example 15, 4,6-dimethoxy-N-[5-(3-methoxyprop-1-yn-1-yl)-4-(trifluoromethyl)-1,3-thiazol-2-yl]pyrimidine-5-carboxamide], the IC50 was below 50 nM.
Then `COc1ncnc(OC)c1C(=O)Nc1nc(C(F)(F)F)c(-c2ccc(C(C)(C)C#N)cc2)s1` [Example 173, N-{5-[4-(2-cyanopropan-2-yl)phenyl]-4-(trifluoromethyl)-1,3-thiazol-2-yl}-4,6-dimethoxypyrimidine-5-carboxamide], with 100 to 500 nM; and `COc1ncnc(OC)c1C(=O)Nc1nc(C(F)(F)F)c(-c2cccc(S(=O)(=O)N3CCOCC3)c2)s1` [Example 195, 4,6-dimethoxy-N-{5-[3-(morpholin-4-ylsulfonyl)phenyl]-4-(trifluoromethyl)-1,3-thiazol-2-yl}pyrimidine-5-carboxamide], with 50 to 100 nM; and `COc1ncnc(OC)c1C(=O)Nc1nc(C(F)(F)F)c(C(C)(O)c2ccccn2)s1` (centres unmarked) [Example 129, N-{5-[1-hydroxy-1-(pyridin-2-yl)ethyl]-4-(trifluoromethyl)-1,3-thiazol-2-yl}-4,6-dimethoxypyrimidine-5-carboxamide], with above 1000 nM.
As to `COc1ncnc(OC)c1C(=O)Nc1nc(C(F)(F)F)c(-c2ccc(C(C)(C)C#N)cn2)s1` [Example 158, N-{5-[5-(2-cyanopropan-2-yl)pyridin-2-yl]-4-(trifluoromethyl)-1,3-thiazol-2-yl}-4,6-dimethoxypyrimidine-5-carboxamide], the IC50 is below 50 nM.
Consider `COc1ncnc(OC)c1C(=O)Nc1nc(C(F)(F)F)c(-c2ccc(C3(C#N)CC3)cn2)s1` [Example 157, N-{5-[5-(1-cyanocyclopropyl)pyridin-2-yl]-4-(trifluoromethyl)-1,3-thiazol-2-yl}-4,6-dimethoxypyrimidine-5-carboxamide], for which the IC50 lay in the range of 50 to 100 nM.
As for `COc1ncnc(OC)c1C(=O)Nc1nc(C(F)(F)F)c(C2(C)OCCO2)s1` [Example 137, 4,6-dimethoxy-N-[5-(2-methyl-1,3-dioxolan-2-yl)-4-(trifluoromethyl)-1,3-thiazol-2-yl]pyrimidine-5-carboxamide], the IC50 fell in the range of 50 to 100 nM.
With `COCc1sc(NC(=O)c2c(OC)ncnc2OC)nc1C(F)(F)F` [Example 206, 4,6-dimethoxy-N-(5-(methoxymethyl)-4-(trifluoromethyl)thiazol-2-yl)pyrimidine-5-carboxamide], the IC50 is 100 to 500 nM.
Consider `COc1ncnc(OC)c1C(=O)Nc1nc(C(F)(F)F)c(-c2ccnc(C(F)(F)F)c2)s1` [Example 166, 4,6-dimethoxy-N-{4-(trifluoromethyl)-5-[2-(trifluoromethyl)pyridin-4-yl]-1,3-thiazol-2-yl}pyrimidine-5-carboxamide], for which the IC50 fell in the range of 50 to 100 nM.
Regarding `COc1ncnc(OC)c1C(=O)Nc1nc(C(F)(F)F)c(C)s1` [Example 1, 4,6-dimethoxy-N-[5-methyl-4-(trifluoromethyl)-1,3-thiazol-2-yl]pyrimidine-5-carboxamide], the IC50 fell in the range of 50 to 100 nM.
